Assay results taken from patent publication US11957680B2, “Pyruvate kinase activators for use in treating blood disorders” (Agios Pharmaceuticals, Inc., priority 2017, dated 2024).

Tests used:
PKR K410E = PKR K410E (Homo sapiens, UniProt P30613, K410E); assay: PKR mutant assay (K410E), AC50, LDH/NADH-coupled, absorbance at 340 nm; format: biochemical; details: Table 2; enzyme assay
Description: (§1) Example 11. PKR Mutant Assay
(§2) PKR or PKR mutant enzyme solution was diluted into a reaction mix, which contains 1× buffer (100 mM KCl, 50 mM Tris pH 7.5, 5 mM MgCl2) as well as PEP (conc depends on enzyme), 180 μM NADH, 0.5 units LDH, 1 mM DTT, 0.03% BSA; final assay concentrations after 1.11 fold dilution are indicated.
(§3) 2 μL of test compound was added into wells first, and then 180 μL reaction mix was added.
(§4) Reactions mixture with test compound was assembled except for ADP, and plates were stored for 60 minutes at room temperature.
(§5) 20 uL ADP was added to start reaction at room temperature and reaction progress was measured as changes in absorbance at 340 nm wavelength at room temperature.
(§6) Test Compound Preparation:
(§7) Test compound stock was made at 100× concentration in 100% DMSO (10 mM)
(§8) 1 to 3 dilutions were made for 11 points (i.e. 50 μl of first concentration added to 100 μl 100% DMSO to yield 3.33 mM, 50 μl of this added to 100 μl DMSO to yield 1.11 mM, and so forth) • 1 to 100 dilution into assay (2 μl in 200 μl) yielded starting concentration of 100 μM, decreasing 3 fold for 11 points.
(§9) Assay Buffer: 100 mM KCl, 50 mM Tris 7.5, 5 mM MgCl2, 1 mM DTT, 0.03% BSA
(§10) Reaction Mixture: PKR mutant enzyme: 40-400 ng/well; ADP: 0.2-1.65 mM; PEP: 0.1-0.5 mM; NADH: 180 μM; LDH: 0.5 units (Sigma #59023); DTT: 1 mM; BSA: 0.03%.

wild type PKR [1] = target: T1, wild type PKR (Homo sapiens, UniProt P30613); assay: PKR (wild type) enzyme AC50 assay, LDH/NADH-coupled, absorbance at 340 nm; format: biochemical; details: Table 2, enzyme assay; for AC50: read-out: PKR WT AC50
T1 sequence (P30613 whole entry): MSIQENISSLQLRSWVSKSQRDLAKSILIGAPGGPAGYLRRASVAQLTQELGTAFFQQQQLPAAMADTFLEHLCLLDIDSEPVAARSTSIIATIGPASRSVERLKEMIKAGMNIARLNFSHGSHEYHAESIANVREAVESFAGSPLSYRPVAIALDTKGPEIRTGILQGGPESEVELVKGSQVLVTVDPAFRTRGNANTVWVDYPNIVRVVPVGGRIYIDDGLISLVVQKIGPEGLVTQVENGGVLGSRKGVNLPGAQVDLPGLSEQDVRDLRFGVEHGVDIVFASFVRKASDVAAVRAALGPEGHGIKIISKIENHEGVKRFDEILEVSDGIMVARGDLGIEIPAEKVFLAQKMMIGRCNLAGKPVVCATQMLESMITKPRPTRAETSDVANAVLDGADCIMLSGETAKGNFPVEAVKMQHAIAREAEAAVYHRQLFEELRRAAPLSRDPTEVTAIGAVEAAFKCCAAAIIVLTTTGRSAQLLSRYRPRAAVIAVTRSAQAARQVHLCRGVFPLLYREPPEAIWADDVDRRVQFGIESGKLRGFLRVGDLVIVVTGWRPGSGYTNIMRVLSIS
Description: as §1, §2, §3, §4, §5, §6, §7, §8, §9, §10

PKR R510Q = PKR R510Q (Homo sapiens, UniProt P30613, R510Q); assay: PKR mutant assay (R510Q), AC50, LDH/NADH-coupled, absorbance at 340 nm; format: biochemical; details: Table 2, enzyme assay; for AC50: read-out: PK R510Q AC50
PKR R510Q, sequence (P30613 whole entry R510Q): as the sequence (P30613 whole entry) above, with R510Q counted along it
Description: as §1, §2, §3, §4, §5, §6, §7, §8, §9, §10

wild type PKR [2] = target: T1, wild type PKR; assay: Cell based ATP assay in purified red blood cells (Cell-Titer-Glo); design: endogenous in cells; host or cells: purified red blood cells from healthy volunteers; details: Table 2; RBCs, overnight at 37° C., ATP levels
Description: Example 16. Red Blood Cell (RBC) Purification
Fresh blood drawn from healthy volunteers into K2EDTA tubes was collected. Whole blood was pelleted by spinning at 500 g for 10 minutes. Cut transfusion bag port off of Purecell leukocyte reduction neofilter (Fisher NC0267633) one (1) inch above filter. Attach a 10 ml syringe barrel to the remaining cut tubing attached to neofilter. The plasma layer was removed from the pellet of the whole blood and the pellet was resuspended in 2× volume of phosphate buffered saline (PBS). Transfer 9 ml re-suspended blood cell pellet to prepared 10 ml syringe that is attached to the neofilter. Allow whole blood to gravity flow through filter until all fluid runs through upper tubing into filter disc. Add plunger to the syringe, remove syringe from clamp and invert the filter, then plunge air through the syringe filter system. Using a new 5 ml syringe, remove filtered RBCs from the bag by the syringe port and transfer purified RBCs to a 5 ml snap cap tube that has been incubated on ice. Spin 5 ml snap cap tube at 500 g for 10 minutes at 15 C, aspirate supernatant and resuspend in AGAM (1×PBS, 1% glucose, 170 mg/L adenine, 5.25 g/L mannitol) at a density of 4×10^9 cells/mL.
Example 17. Cell Based ATP Assay
For cell based ATP assays, the compound as described herein was prepared in 100% DMSO as a 10 mM stock. Serial dilutions (1:4) were performed in 96-well V-bottom storage plate and then added 1:100 to 96-well V-bottom plates containing AGAM. RBCs were diluted in AGAM media to a density of 1×10^7 cells/mL before added 90 μL/well to black clear bottom assay plates (final compound concentration at 0.1% DMSO concentration). Assay plates were sealed using aluminum foil seals and incubated overnight at 37° C. in a humidified chamber. ATP levels were read out using Cell-Titer-Glo (Promega).

PKR K410E, sequence (P30613 whole entry K410E): as the sequence (P30613 whole entry) above, with K410E counted along it

| AC50 (PKR K410E) | AC50 (wild type PKR [1]) | AC50 (PKR R510Q) | AC50 (wild type PKR [2]) | PK R510Q AC50 (PKR R510Q) | PKR K410E AC50 (PKR K410E) | PKR WT AC50 (wild type PKR [1]) | Cell based ATP assay AC50 (wild type PKR [2]) | Structure (SMILES) |
| --- | --- | --- | --- | --- | --- | --- | --- | --- |
| > 800 nM | > 800 nM | < 300 nM | > 1000 nM |  |  |  |  | Cn1c2nc([S+](C)[O-])sc2c2cnn(Cc3cccc4c3CCNC4)c(=O)c21 (stereo not drawn) [Compound 80] |
| < 300 nM | < 300 nM | < 300 nM | ≤ 1000 nM |  |  |  |  | Cn1c2nc(Cc3cc[nH]n3)sc2c2cnn(Cc3cccc4[nH]ncc34)c(=O)c21 [Compound 81] |
| 301 to 800 nM | < 300 nM | 301 to 800 nM | > 1000 nM |  |  |  |  | Cn1c2nc(C(N)=O)sc2c2cnn(Cc3cccc4[nH]ncc34)c(=O)c21 [Compound 82] |
| < 300 nM | < 300 nM | < 300 nM | ≤ 1000 nM |  |  |  |  | Cn1c2nc([S+](C)[O-])sc2c2cnn(Cc3csc(N)n3)c(=O)c21 (stereo not drawn) [Compound 83] |
| 301 to 800 nM | < 300 nM | 301 to 800 nM | > 1000 nM |  |  |  |  | Cn1c2nc(C#N)sc2c2cnn(Cc3cccc4[nH]ncc34)c(=O)c21 [Compound 84] |
| 301 to 800 nM | < 300 nM | < 300 nM | ≤ 1000 nM |  |  |  |  | CSc1nc2c(s1)c1cnn(Cc3cccc(C(C)(C)O)c3)c(=O)c1n2C [Compound 85] |
| > 800 nM | < 300 nM | > 800 nM | > 1000 nM |  |  |  |  | CC(=O)c1cccc(Cn2ncc3c4sc([S+](C)[O-])nc4n(C)c3c2=O)c1 (stereo not drawn) [Compound 86] |
| < 300 nM | < 300 nM | 301 to 800 nM | ≤ 1000 nM |  |  |  |  | Cn1c2nc([S+](C)[O-])sc2c2cnn(Cc3cccc(C(C)(C)O)c3)c(=O)c21 (stereo not drawn) [Compound 87] |
| 301 to 800 nM | < 300 nM | 301 to 800 nM | ≤ 1000 nM |  |  |  |  | CC(O)c1cccc(Cn2ncc3c4sc([S+](C)[O-])nc4n(C)c3c2=O)c1 (stereo not drawn) [Compound 88] |
| < 300 nM | < 300 nM | < 300 nM | ≤ 1000 nM |  |  |  |  | Cn1c2nc(Cc3cccc(O)c3)sc2c2cnn(Cc3cccc4[nH]ncc34)c(=O)c21 [Compound 89] |
| < 300 nM | < 300 nM | < 300 nM | > 1000 nM |  |  |  |  | Cn1c2nc([S+](C)[O-])sc2c2cnn(Cc3ccc4c(c3)OCCO4)c(=O)c21 (stereo not drawn) [Compound 90] |
| < 300 nM | < 300 nM | < 300 nM | ≤ 1000 nM |  |  |  |  | Cn1c2nc(Cc3ccccc3)sc2c2cnn(Cc3cccc4[nH]ncc34)c(=O)c21 [Compound 91] |
| 301 to 800 nM | < 300 nM | 301 to 800 nM | ≤ 1000 nM |  |  |  |  | Cn1c2nc(S(C)(=O)=O)sc2c2cnn(Cc3cccc4[nH]ncc34)c(=O)c21 [Compound 92] |
| > 800 nM | > 800 nM | > 800 nM | > 1000 nM |  |  |  |  | Cn1c2nc(Cc3ccc(C#N)cc3)sc2c2cnn(Cc3cccc4[nH]ncc34)c(=O)c21 [Compound 93] |
| > 800 nM | > 800 nM |  | > 1000 nM | No Fit |  |  |  | Cn1c2nc([S+](C)[O-])sc2c2cnn(Cc3cnc(N)nc3)c(=O)c21 (stereo not drawn) [Compound 94] |
|  |  |  |  | No Fit | No Fit | No Fit | No Fit | CSc1nc2c(s1)c1cnn(Cc3cnc(=O)[nH]c3)c(=O)c1n2C [Compound 95] |
| > 800 nM | > 800 nM |  |  | No Fit |  |  | No Fit | CSc1nc2c(s1)c1cnn(Cc3ccnc(=O)[nH]3)c(=O)c1n2C [Compound 96] |
| > 800 nM | > 800 nM | > 800 nM | > 1000 nM |  |  |  |  | Cn1c2nc([S+](C)[O-])sc2c2cnn(Cc3ccnc(N)n3)c(=O)c21 (stereo not drawn) [Compound 97] |

| AC50 (PKR K410E) | AC50 (wild type PKR [1]) | AC50 (PKR R510Q) | AC50 (wild type PKR [2]) | PK R510Q AC50 (PKR R510Q) | PKR K410E AC50 (PKR K410E) | PKR WT AC50 (wild type PKR [1]) | Cell based ATP assay AC50 (wild type PKR [2]) | Structure (SMILES) |
| --- | --- | --- | --- | --- | --- | --- | --- | --- |
| > 800 nM |  |  | > 1000 nM | No Fit |  | No Fit |  | Cn1c2nc([S+](C)[O-])sc2c2cnn(Cc3ccc(C(N)=O)cc3)c(=O)c21 (stereo not drawn) [Compound 98] |
| 301 to 800 nM | < 300 nM | 301 to 800 nM | ≤ 1000 nM |  |  |  |  | Cn1c2nc(Cc3cccc(C#N)c3)sc2c2cnn(Cc3cccc4[nH]ncc34)c(=O)c21 [Compound 99] |
| < 300 nM | < 300 nM | < 300 nM | ≤ 1000 nM |  |  |  |  | Cn1c2nc(Cc3cccc(C(N)=O)c3)sc2c2cnn(Cc3cccc4[nH]ncc34)c(=O)c21 [Compound 100] |
| > 800 nM | > 800 nM | > 800 nM | > 1000 nM |  |  |  |  | Cn1c2nc([S+](C)[O-])sc2c2cnn(Cc3cnc(N)s3)c(=O)c21 (stereo not drawn) [Compound 101] |
| < 300 nM | < 300 nM | < 300 nM | ≤ 1000 nM |  |  |  |  | Cn1c2nc([S+](C)[O-])sc2c2cnn(Cc3ccc4ccccc4n3)c(=O)c21 (stereo not drawn) [Compound 102] |
| < 300 nM | < 300 nM | < 300 nM | ≤ 1000 nM |  |  |  |  | CNc1cccc(Cc2nc3c(s2)c2cnn(Cc4cccc5[nH]ncc45)c(=O)c2n3C)c1 [Compound 103] |
| > 800 nM | < 300 nM | < 300 nM | > 1000 nM |  |  |  |  | C=Cc1nc2c(s1)c1cnn(Cc3cccc4[nH]ncc34)c(=O)c1n2C [Compound 104] |
| < 300 nM | < 300 nM | < 300 nM | ≤ 1000 nM |  |  |  |  | Cn1c2nc(CO)sc2c2cnn(Cc3cccc4[nH]ncc34)c(=O)c21 [Compound 105] |
| < 300 nM | < 300 nM | < 300 nM | ≤ 1000 nM |  |  |  |  | CC(O)c1nc2c(s1)c1cnn(Cc3cccc4[nH]ncc34)c(=O)c1n2C (stereo not drawn) [Compound 106] |
| > 800 nM |  | > 800 nM |  |  |  | No Fit | No Fit | CSc1nc2c(s1)c1cnn(Cc3cn4cccnc4n3)c(=O)c1n2C [Compound 107] |
| < 300 nM | < 300 nM | < 300 nM | ≤ 1000 nM |  |  |  |  | COc1cccc(Cn2ncc3c4sc(C(F)(F)c5ccccc5)nc4n(C)c3c2=O)c1 [Compound 108] |
| < 300 nM | < 300 nM | < 300 nM | ≤ 1000 nM |  |  |  |  | CNc1ccc(Cc2nc3c(s2)c2cnn(Cc4cccc5[nH]ncc45)c(=O)c2n3C)cc1 [Compound 109] |
| > 800 nM | > 800 nM | > 800 nM |  |  |  |  | No Fit | CSc1nc2c(s1)c1cnn(Cc3cccc(S(N)(=O)=O)c3)c(=O)c1n2C [Compound 110] |
| < 300 nM | < 300 nM | < 300 nM | ≤ 1000 nM |  |  |  |  | Cn1c2nc(Cc3cc[nH]n3)sc2c2cnn(Cc3ccc4ccccc4n3)c(=O)c21 [Compound 111] |
| > 800 nM | > 800 nM | > 800 nM | > 1000 nM |  |  |  |  | Cn1c2nc(Cc3ccc(C(N)=O)cc3)sc2c2cnn(Cc3cccc4[nH]ncc34)c(=O)c21 [Compound 112] |
| > 800 nM | > 800 nM | > 800 nM | > 1000 nM |  |  |  |  | COC(=O)C(C(=O)OC)c1nc2c(s1)c1cnn(Cc3cccc4[nH]ncc34)c(=O)c1n2C [Compound 113] |
| < 300 nM | < 300 nM | < 300 nM |  |  |  |  | No Fit | CSc1nc2c(s1)c1cnn(Cc3cccc4sc(N)nc34)c(=O)c1n2C [Compound 114] |
| > 800 nM | > 800 nM | > 800 nM |  |  |  |  | No Fit | CSc1nc2c(s1)c1cnn(Cc3ccc(S(N)(=O)=O)cc3)c(=O)c1n2C [Compound 116] |
